Test results as given in PMC5537305, “Photo-enhanced Aqueous Solubilization of an Azo-compound” (Scientific Reports, 2017).
“And” between values parts separate entries of the source, which are not always exact repeats. Equal entries are not always repeated. Where two headings read alike, the source gives them in different places.

Assay: Aqueous solubilization in 1/15 M phosphate buffer (pH 7.4) under UV, visible light or dark, with cis ratio in solution by HPLC
Assay type: physicochemical
Details: for increase of aqueous solubilization, UV irradiation vs dark: mercury lamp 0.5 mW/cm2; for Aqueous solubilized 3: successive irradiations
Method: Table S3. Cis ratio and aqueous solubilization of 3 under UV irradiation, under visible light irradiation, and in […]
Compound 3 was shaken at 37 °C under UV irradiation, under visible light irradiation, and in the dark. UV irradiation was performed with a mercury lamp (0.5 mW/cm2). Cis ratio in the aqueous solution was evaluated from the peak areas in HPLC immediately after filtration.
Table S4. Aqueous solubilization and cis ratio of 3 under irradiation at various wavelengths through filters of […]
Illumination was performed with a xenon lamp using repeated cycles of irradiation and shaking (5000 flashes, then shaking for 10 sec) through filters of various bandwidths at room temperature (20-22 °C) for 1 h. The cis ratio in the aqueous solution was evaluated by HPLC immediately after filtration, based on peak area.
Table S5. Aqueous solubilization of 3 under UV irradiation at various intensity levels.
Sample irradiation was conducted using 365 nm LED light (max light intensity: 290 mW/cm2) at 37 °C for 1 […]
Sample irradiations were conducted with the white light through a filter cutting off wavelengths below 560 nm, or with 365 nm LED light (344 mW/cm2) at 37 °C for 1 h.
Table S7. Aqueous dissolution of UV-irradiated crystals of 3 measured in the dark, and the cis ratio contained […]
Crystals of 3 were irradiated with 365 nm LED light (344 mW/cm2) at 37 °C for 3 h.
The UV-irradiated crystals and unirradiated crystals were each shaken in phosphate buffer in the dark at 37 °C for 1 h.
Physicochemical properties […]
Compound 3 (about 0.2 mg) was ground and taken up in 1/15 M phosphate buffer (pH 7.4, 1.0 mL) in a 10 mL glass tube. The suspension was incubated under ultrasound irradiation for 10 min, and shaken in a temperature controllable incubator located in a dark room for the indicated time at the indicated temperature.
With shaking on a plate shaker, a sample was irradiated with a 365 nm mercury lamp (4 W, UVP compact […]
white LED light (5 W, Nikki Trading Corp., NLSS05BM, 68 and 54 mW/cm2 at 450 and 540 nm, respectively) through a filter cutting off wavelengths below 560 nm (Atto Corp. YA-3). Irradiation was done from the top of the sample glass tube. Then, the suspension was filtered through a Millipore Millex-LG (0.20 […]
For irradiation at various UV wavelengths, 3 (about 0.1 mg) was ground and taken up in 1/15 M phosphate buffer (pH 7.4, 0.2 mL) in a well of a 96-well white plate. Illumination over a range of wavelength from 355-540 nm was performed using a plate reader EnVision equipped with a xenon flash lamp (35 W, 500 Hz), with excitation filters of appropriate bandwidths.

cis ratio in solution after UV irradiation (365 nm LED, roughly constant, independent of light intensity): ~90%
increase of aqueous solubilization, UV irradiation vs dark (0.5 h, 37 °C): 3.5 fold
increase of aqueous solubilization, UV irradiation vs dark (1 h, 37 °C): 5.0 fold
increase of aqueous solubilization, UV irradiation vs dark (5 h, 37 °C): 7.1 fold and 7 fold
cis ratio (Dark, 37 °C, shake time 0.5 h): 6%
cis ratio (Dark, 37 °C, shake time 1 h): 4%
cis ratio (Dark, 37 °C, shake time 5 h): 7%
cis ratio (UV light (mercury lamp 0.5 mW/cm2), 37 °C, shake time 0.5 h): 77%
cis ratio (UV light (mercury lamp 0.5 mW/cm2), 37 °C, shake time 1 h): 80%
cis ratio (UV light (mercury lamp 0.5 mW/cm2), 37 °C, shake time 3 h): 80%
cis ratio (UV light (mercury lamp 0.5 mW/cm2), 37 °C, shake time 5 h): 75%
cis ratio (UV light (mercury lamp 0.5 mW/cm2), 37 °C, shake time 8 h): 87%
cis ratio (Visible light, 37 °C, shake time 1 h): 25%
cis ratio (Visible light, 37 °C, shake time 5 h): 25%
cis ratio (light intensity 0.00 mW/cm2, 365 nm LED, 37 °C, 1 h): 4%
cis ratio (light intensity 4.56 mW/cm2, 365 nm LED, 37 °C, 1 h): 89%
cis ratio (light intensity 29.0 mW/cm2, 365 nm LED, 37 °C, 1 h): 92%
cis ratio (light intensity 290 mW/cm2, 365 nm LED, 37 °C, 1 h): 90%
increase of aqueous solubilization compared with the dark condition (maximum irradiation intensity 290 mW/cm2, 365 nm LED, 37 °C, 1 h): 23 fold
increase of aqueous solubilization by exposure to UV light (phosphate buffer, compared to without irradiation, up to): up to 20 fold
solubility at 1 h (phosphate buffer, pH 7.4, 46 °C, after 1 h, read-out: aqueous solubility): 3.5 µg/mL
solubility at 24 h (phosphate buffer, pH 7.4, 46 °C, after 24 h): 3.2 µg/mL
solubility at 1 h (phosphate buffer, pH 7.4, Dark, 37 °C, shake time 1 h, read-out: Solubility): 3 µg/mL
solubility at 0.5 h (phosphate buffer, pH 7.4, UV light (mercury lamp 0.5 mW/cm2), 37 °C, shake time 0.5 h, read-out: Solubilized 3): 11.1 µg/mL
solubility at 1 h (phosphate buffer, pH 7.4, UV light (mercury lamp 0.5 mW/cm2), 37 °C, shake time 1 h, read-out: Solubilized 3): 14.9 µg/mL
solubility at 3 h (phosphate buffer, pH 7.4, UV light (mercury lamp 0.5 mW/cm2), 37 °C, shake time 3 h, read-out: Solubilized 3): 18.4 µg/mL
solubility at 5 h (phosphate buffer, pH 7.4, UV light (mercury lamp 0.5 mW/cm2), 37 °C, shake time 5 h, read-out: Solubilized 3): 24.7 µg/mL
solubility at 8 h (phosphate buffer, pH 7.4, UV light (mercury lamp 0.5 mW/cm2), 37 °C, shake time 8 h, read-out: Solubilized 3): 24.2 µg/mL
solubility at 1 h (phosphate buffer, pH 7.4, Visible light, 37 °C, shake time 1 h, read-out: Solubilized 3): 4.6 µg/mL
solubility at 5 h (phosphate buffer, pH 7.4, Visible light, 37 °C, shake time 5 h, read-out: Solubilized 3): 5.1 µg/mL
solubility at 1 h (phosphate buffer, pH 7.4, light intensity 4.56 mW/cm2, 365 nm LED, 37 °C, 1 h, read-out: Aqueous solubilized 3): 12.3 µg/mL
solubility at 1 h (phosphate buffer, pH 7.4, light intensity 29.0 mW/cm2, 365 nm LED, 37 °C, 1 h, read-out: Aqueous solubilized 3): 36.2 µg/mL
solubility at 1 h (phosphate buffer, pH 7.4, light intensity 290 mW/cm2, 365 nm LED, 37 °C, 1 h, read-out: Aqueous solubilized 3): 69.6 µg/mL
solubility (phosphate buffer, pH 7.4, phosphate buffer, in the dark, after 0.5, 1 and 5 h at 37 °C, read-out: aqueous solubility): ~3 µg/mL
solubility (phosphate buffer, pH 7.4, white-light irradiation, after 1 and 5 h, 37 °C, read-out: solubilization): ~5 µg/mL
Aqueous solubilized 3 (step 1: visible (white light, filter cutting off below 560 nm), 37 °C, 1 h): 1.0 fold
Aqueous solubilized 3 (step 2: UV 365 nm LED 344 mW/cm2, 37 °C, 1 h): 35.5 fold
Aqueous solubilized 3 (step 3: visible, 37 °C, 1 h): 2.3 fold
Aqueous solubilized 3 (step 4: UV 365 nm LED 344 mW/cm2, 37 °C, 1 h): 37.9 fold
Aqueous solubilized 3 (step 5: visible, 37 °C, 1 h): 2.9 fold
SMILES: CC(C)n1nc(/N=N/c2ccccc2)c2c(N)ncnc21 [Compound 3]
